Source: patent US20090191183A1, “SUBSTITUTED INDOLES” (AUSPEX PHARMACEUTICALS, INC., priority 2007, published 2009)

Experiments:
[1] = In vitro human liver microsomal (HLM) stability assay; assay type: in vitro ADME; settings: vs non-isotopically enriched drug; 1 mg per mL liver microsome protein, 1 μM, 37° C.; + marks the range of the column head
Description: Liver microsomal stability assays are conducted at 1 mg per mL liver microsome protein with an NADPH-generating system in 2% NaHCO3 (2.2 mM NADPH, 25.6 mM glucose 6-phosphate, 6 units per mL glucose 6-phosphate dehydrogenase and 3.3 mM MgCl2). Test compounds are prepared as solutions in 20% acetonitrile-water and added to the assay mixture (final assay concentration 1 μM) and incubated at 37° C. Final concentration of acetonitrile in the assay should be <1%. Aliquots (50 μL) are taken out at times 0, 7.5, 15, 22.5, and 30 min, and diluted with ice cold acetonitrile (200 μL) to stop the reactions. Samples are centrifuged at 12,000 RPM for 10 min to precipitate proteins. Supernatants are transferred to micro centrifuge tubes and stored for LC/MS/MS analysis of the degradation half-life of the test compounds.

cytochrome P450 CYP2C9 = target: T1, cytochrome P450 CYP2C9 (Homo sapiens, UniProt P11712); settings: human liver microsomes; at concentrations near clinically achieved total plasma concentrations; cited from earlier work
T1 construct: in vitro studies using human liver microsomes; from tissue; host or cells: human liver microsomes

cytochrome P450 CYP3A4 = target: T2, cytochrome P450 CYP3A4 (Homo sapiens, UniProt P08684); settings: human liver microsomes; at concentrations near clinically achieved total plasma concentrations; cited from earlier work
T2 construct: in vitro studies using human liver microsomes; from tissue; host or cells: human liver microsomes

[2] = treatment of mild to moderate asthma; cited from earlier work

T2 sequence (P08684 whole entry): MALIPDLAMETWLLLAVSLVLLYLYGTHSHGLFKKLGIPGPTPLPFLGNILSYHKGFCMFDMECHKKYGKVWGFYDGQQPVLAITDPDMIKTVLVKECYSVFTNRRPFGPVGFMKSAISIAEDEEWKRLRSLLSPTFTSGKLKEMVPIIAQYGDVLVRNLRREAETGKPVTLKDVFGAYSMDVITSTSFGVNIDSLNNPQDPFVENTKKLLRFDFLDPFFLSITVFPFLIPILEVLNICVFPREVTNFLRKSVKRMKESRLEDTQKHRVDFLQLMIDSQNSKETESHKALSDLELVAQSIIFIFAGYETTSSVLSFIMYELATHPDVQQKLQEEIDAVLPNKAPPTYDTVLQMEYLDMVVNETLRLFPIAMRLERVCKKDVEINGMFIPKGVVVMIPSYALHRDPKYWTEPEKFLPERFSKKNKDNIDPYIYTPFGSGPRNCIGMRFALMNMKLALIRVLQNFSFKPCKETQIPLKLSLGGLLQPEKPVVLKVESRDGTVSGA
T1 sequence (P11712 whole entry): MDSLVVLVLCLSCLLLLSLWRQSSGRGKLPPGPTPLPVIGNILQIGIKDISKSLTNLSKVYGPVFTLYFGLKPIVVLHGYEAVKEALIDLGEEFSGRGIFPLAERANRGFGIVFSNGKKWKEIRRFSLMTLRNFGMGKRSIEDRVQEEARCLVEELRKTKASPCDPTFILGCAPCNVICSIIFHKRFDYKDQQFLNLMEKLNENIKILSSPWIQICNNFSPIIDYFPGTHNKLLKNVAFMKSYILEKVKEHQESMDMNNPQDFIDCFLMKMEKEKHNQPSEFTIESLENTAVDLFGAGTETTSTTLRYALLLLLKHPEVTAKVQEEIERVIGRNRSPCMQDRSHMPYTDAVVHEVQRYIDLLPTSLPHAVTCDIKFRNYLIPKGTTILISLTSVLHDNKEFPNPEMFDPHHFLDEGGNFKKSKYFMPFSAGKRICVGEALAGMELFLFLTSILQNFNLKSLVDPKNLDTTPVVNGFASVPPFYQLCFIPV

[2H]C([2H])([2H])Oc1cc(C(=O)NS(=O)(=O)c2ccccc2C([2H])([2H])[2H])ccc1Cc1cn(C([2H])([2H])[2H])c2ccc(NC(=O)OC3([2H])C([2H])([2H])C([2H])([2H])C([2H])([2H])C3([2H])[2H])cc12 [Example 6]
% increase of HLM degradation half-life, 15%-25% [1]: + (15%-25%)

COc1cc(C(=O)NS(=O)(=O)c2ccccc2C)ccc1Cc1cn(C)c2ccc(NC(=O)OC3CCCC3)cc12 [Example 1, reference compound]
% increase of HLM degradation half-life, 5%-15% [1]: + (5%-15%)

[2H]C([2H])([2H])Oc1cc(C(=O)NS(=O)(=O)c2ccccc2C([2H])([2H])[2H])ccc1Cc1cn(C([2H])([2H])[2H])c2ccc(NC(=O)OC3CCCC3)cc12 [Example 7]
% increase of HLM degradation half-life, column >25% [1]: + (>25%)

[2H]C([2H])([2H])n1cc(Cc2ccc(C(=O)NS(=O)(=O)c3ccccc3C)cc2OC)c2cc(NC(=O)OC3CCCC3)ccc21 [Example 4]
% increase of HLM degradation half-life, 15%-25% [1]: + (15%-25%)

[2H]C([2H])([2H])c1ccccc1S(=O)(=O)NC(=O)c1ccc(Cc2cn(C)c3ccc(NC(=O)OC4CCCC4)cc23)c(OC)c1 [Example 3]
% increase of HLM degradation half-life, 15%-25% [1]: + (15%-25%)

COc1cc(C(=O)NS(=O)(=O)c2ccccc2C)ccc1Cc1cn(C)c2ccc(NC(=O)OC3CCCC3)cc12 [zafirlukast, 4-(5-cyclopentyloxy-carbonylamino-1-methyl-indol-3-ylmethyl)-3-methoxy-N—O-tolylsulfonylbenzamide]
inhibition of cytochrome P450 CYP2C9 isoenzyme (cytochrome P450 CYP2C9): inhibits
inhibition of cytochrome P450 CYP3A4 isoenzyme (cytochrome P450 CYP3A4): inhibits
hepatotoxicity [2]: occasional idiosyncratic hepatotoxicity

[2H]C([2H])([2H])Oc1cc(C(=O)NS(=O)(=O)c2ccccc2C)ccc1Cc1cn(C)c2ccc(NC(=O)OC3CCCC3)cc12 [Example 2]
% increase of HLM degradation half-life, 5%-15% [1]: + (5%-15%)
